In one data set the target is T1, AHR (Homo sapiens, UniProt P35869).
T1 construct: other cell line with a DRE-luciferase reporter stably transfected; endogenous in cells; host or cells: HepG2 AhR-Lucia reporter cells
T1 sequence (P35869 11-848): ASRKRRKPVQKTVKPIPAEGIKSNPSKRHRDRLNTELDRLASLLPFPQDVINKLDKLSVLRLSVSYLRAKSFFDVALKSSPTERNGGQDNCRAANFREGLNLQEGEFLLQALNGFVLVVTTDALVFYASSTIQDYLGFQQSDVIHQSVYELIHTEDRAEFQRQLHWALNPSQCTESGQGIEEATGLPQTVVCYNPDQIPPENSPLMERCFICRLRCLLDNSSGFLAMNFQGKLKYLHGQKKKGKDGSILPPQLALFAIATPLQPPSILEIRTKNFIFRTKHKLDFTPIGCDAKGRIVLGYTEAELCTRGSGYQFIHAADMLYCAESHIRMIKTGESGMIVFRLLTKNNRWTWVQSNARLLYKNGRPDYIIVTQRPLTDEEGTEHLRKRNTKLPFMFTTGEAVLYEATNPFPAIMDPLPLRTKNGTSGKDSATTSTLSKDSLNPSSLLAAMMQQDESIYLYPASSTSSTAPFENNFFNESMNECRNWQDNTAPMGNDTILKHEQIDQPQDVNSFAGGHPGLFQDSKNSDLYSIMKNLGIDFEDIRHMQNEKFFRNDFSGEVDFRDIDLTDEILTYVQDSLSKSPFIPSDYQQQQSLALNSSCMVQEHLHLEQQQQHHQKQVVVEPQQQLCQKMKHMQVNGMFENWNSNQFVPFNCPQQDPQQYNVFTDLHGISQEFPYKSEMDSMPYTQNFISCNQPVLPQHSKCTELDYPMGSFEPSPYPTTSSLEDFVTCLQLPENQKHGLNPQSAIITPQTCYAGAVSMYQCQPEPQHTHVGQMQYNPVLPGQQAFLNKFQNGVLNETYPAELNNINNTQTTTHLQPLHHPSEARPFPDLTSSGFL
The data set is described as follows: DRE-Luciferase Reporter Assay, HepG2 AhR-Lucia reporter cells. The data set is classed as cell-based. The conditions noted are these: with AHR activating ligand at EC50, read-out: HepG2-Luc IC50. The method in brief:
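DRE-luciferase reporter cells (e.g. HepG2 AhR-Lucia, 20000 cells) treated with antagonist log dilutions from 100 uM, then an AHR agonist (e.g. TCDD, kynurenine, ITE, FICZ) at its EC50 added after 1 hr. Secreted luciferase measured after 24 or 48 h (QUANTI-Luc); IC50 = concentration halving luciferase activity.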
(In general: Reporter assays use an easily measured gene product as a stand-in for the process of interest.)

The nature of data set [1]: Solubility Determination Assay in PBS pH 1.6 and pH 7.4. The data set is classed as physicochemical. To be noted: PBS buffer, aqueous buffer, kinetic from dmso stock. The method in brief: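 Compounds from 10 mM DMSO stock diluted into PBS pH 1.6 or pH 7.4 (15 μL into 485 μL), stirred 2 hours, then filtered. Filtrate quantified by LC-MS/MS against a standard of known concentration with internal standard; single determination.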

[2] abbreviates: PBS pH 1.6, 25° C., read-out: Aq. Solubility at pH = 1.6.
[3] abbreviates: PBS pH 7.4, 25° C., read-out: Aq. Solubility at pH = 7.4.

This note sets out measurements from patent publication US20230295152A1 (SENDA BIOSCIENCES, INC., priority 2019, published 2023).

Values after ≈ are worked out from the molar mass of the structure shown. Where two headings read alike, the source gives them in different places. Bounds are passed on as bounds.

For orientation: IC50 means the point on the concentration scale where inhibition reaches its midpoint. By solubility is commonly meant the concentration that dissolves in the medium under given conditions.

For `Cn1cc(-c2nc(-c3ccc(C(F)(F)F)nc3)cc3c(=O)n(C[C@H](O)C(F)(F)F)cnc23)cn1` [Compound 111, (S)-8-(1-methyl-1H-pyrazol-4-yl)-3-(3,3,3-trifluoro-2-hydroxypropyl)-6-(6-(trifluoromethyl)pyridin-3-y1)pyrido[3,4-d]pyrimidin-4(3H)-one], on AHR, the IC50 is < 100 nM. The solubility at 2 h is 0.1 to 1 µM (≈ 0.0484 to 0.484 µg/mL) in data set [1] (setting [2]) and < 0.1 µM in data set [1] (setting [3]).

As to `C[C@@H](n1cnc2c(-c3cccnc3)nc(-c3ccc(Cl)cc3)cc2c1=O)C(C)(C)O` [Compound 33], the IC50 at AHR is < 100 nM. The solubility at 2 h in data set [1] (setting [3]) is < 0.1 µM.

Turning to `C[C@@H](CO)n1cnc2c(N3CCCCC3)nc(-c3ccc(Cl)cc3)cc2c1=O` [Compound 177, (S)-6-(4-chlorophenyl)-3-(1-hydroxypropan-2-yl)-8-(piperidin-1-yl)pyrido[3,4-d]pyrimidin-4(3H)-one], the IC50 on AHR is < 100 nM. Also, the solubility at 2 h in data set [1] (setting [2]) was ≥ 1 µM; in data set [1] (setting [3]), 0.1 to 1 µM (≈ 0.0399 to 0.399 µg/mL).

In the case of `Cn1cc(-c2nc(-c3ccc(C(F)(F)F)nc3)cc3c(=O)n([C@H]4COC[C@H]4O)cnc23)cn1` [Compound 88], the IC50 at AHR is < 100 nM. The solubility at 2 h in data set [1] (setting [2]) is ≥ 1 µM; in data set [1] (setting [3]), 0.1 to 1 µM (≈ 0.0458 to 0.458 µg/mL).

Turning to `C[C@@H](CO)n1cnc2c(-c3cnsc3)nc(-c3ccc(C(F)(F)F)nc3)cc2c1=O` [Compound 55], the IC50 on AHR was < 100 nM. The solubility at 2 h in data set [1] (setting [2]) and in data set [1] (setting [3]) was ≥ 1 µM throughout.

With `O=c1c2cc(-c3ccc(C(F)(F)F)cn3)nc(-c3cccnc3)c2ncn1[C@H]1COC[C@@H]1O` [Compound 139, 3-((3S,4R)-4-hydroxytetrahydrofuran-3-yl)-8-(pyridin-3-yl)-6-(5-(trifluoromethyl)pyridin-2-yl)pyrido[3,4-d]pyrimidin-4(3H)-one], the IC50 at AHR was < 100 nM. For the same compound, the solubility at 2 h in data set [1] (setting [2]) and in data set [1] (setting [3]) was ≥ 1 µM each time.

Turning to `C[C@@H](CO)n1cnc2c(-c3cccnc3)nc(-c3ccc(C(F)(F)F)cc3)cc2c1=O` [Compound 23], the IC50 on AHR was < 100 nM. For the same compound, the solubility at 2 h in data set [1] (setting [2]) and in data set [1] (setting [3]) was ≥ 1 µM each time.

`O=c1c2cc(-c3ccc(Cl)cc3)nc(-c3cccnc3)c2ncn1[C@H]1COC[C@@H]1O` [Compound 125, 6-(4-chlorophenyl)-3-((3S,4R)-4-hydroxytetrahydrofuran-3-yl)-8-(pyridin-3-yl)pyrido[3,4-d]pyrimidin-4(3H)-one]: the IC50 on AHR was < 100 nM. For the same compound, the solubility at 2 h in data set [1] (setting [2]) and in data set [1] (setting [3]) was ≥ 1 µM in each case.

As to `Cn1cc(-c2nc(-c3ccc(C4CC4)nc3)cc3c(=O)n(C[C@H](O)C(F)(F)F)cnc23)cn1` [Compound 136, (S)-6-(6-cyclopropylpyridin-3-yl)-8-(1-methyl-1H-pyrazol-4-yl)-3-(3,3,3-trifluoro-2-hydroxypropyl)pyrido[3,4-d]pyrimidin-4(3H)-one], on AHR, the IC50 was < 100 nM. Besides, the solubility at 2 h in data set [1] (setting [2]) is ≥ 1 µM; in data set [1] (setting [3]), 0.1 to 1 µM (≈ 0.0456 to 0.456 µg/mL).

As to `O=c1c2cc(-c3ccc(C(F)(F)F)nc3)nc(-c3cccnc3)c2ncn1C[C@@H](O)C(F)(F)F` [Compound 122, (R)-8-(pyridin-3-yl)-3-(3,3,3-trifluoro-2-hydroxypropyl)-6-(6-(trifluoromethyl)pyridin-3-yl)pyrido[3,4-d]pyrimidin-4(3H)-one], the IC50 on AHR was < 100 nM. Besides, the solubility at 2 h in data set [1] (setting [2]) and in data set [1] (setting [3]) was ≥ 1 µM throughout.

As for `O=c1c2cc(-c3ccc(Cl)cc3)nc(-c3cccnc3)c2ncn1[C@@H]1COC[C@@H]1O` (stereo in doubt) [Compound 71], on AHR, the IC50 is < 100 nM. Also, the solubility at 2 h in data set [1] (setting [2]) and in data set [1] (setting [3]) was ≥ 1 µM throughout.

Take `C[C@@H](CO)n1cnc2c(-c3cnn(C)c3)nc(-c3ccc(OC(F)(F)F)cc3)cc2c1=O` [Compound 25]: the IC50 on AHR was < 100 nM. The solubility at 2 h in data set [1] (setting [2]) is 0.1 to 1 µM (≈ 0.0445 to 0.445 µg/mL); in data set [1] (setting [3]), < 0.1 µM.

With `C[C@H](O)Cn1cnc2c(-c3cnn(C)c3)nc(-c3ccc(C(F)(F)F)cn3)cc2c1=O` [Compound 142, (S)-3-(2-hydroxypropyl)-8-(1-methyl-1H-pyrazol-4-yl)-6-(5-(trifluoromethyl)pyridin-2-yl)pyrido[3,4-d]pyrimidin-4(3H)-one], the IC50 at AHR was < 100 nM. The solubility at 2 h in data set [1] (setting [2]) and in data set [1] (setting [3]) was 0.1 to 1 µM (≈ 0.043 to 0.43 µg/mL) throughout.

On to `C[C@@H](CO)n1cnc2c(-c3cccnc3)nc(-c3ccc(C(F)(F)F)cn3)cc2c1=O` [Compound 46, (S)-3-(1-hydroxypropan-2-yl)-8-(pyridin-3-yl)-6-(5-(trifluoromethyl)pyridin-2-yl)pyrido[3,4-d]pyrimidin-4(3H)-one], for which, at AHR, the IC50 is < 100 nM. Further, the solubility at 2 h in data set [1] (setting [2]) and in data set [1] (setting [3]) was ≥ 1 µM each time.

For `CC(C)(O)Cn1cnc2c(-c3cccnc3)nc(-c3ccc(Cl)cc3)cc2c1=O` [Compound 18], the IC50 at AHR is < 100 nM. In addition, the solubility at 2 h in data set [1] (setting [2]) and in data set [1] (setting [3]) was ≥ 1 µM throughout.

In the case of `O=c1c2cc(-c3ccc(Cl)cc3)nc(-c3cccnc3)c2ncn1[C@@H]1COC[C@H]1O` [Compound 152, 6-(4-chlorophenyl)-3-((3R,4S)-4-hydroxytetrahydrofuran-3-yl)-8-(pyridin-3-yl)pyrido[3,4-d]pyrimidin-4(3H)-one], at AHR, the IC50 is < 100 nM. For the same compound, the solubility at 2 h in data set [1] (setting [2]) and in data set [1] (setting [3]) was ≥ 1 µM each time.

As to `Cn1cc(-c2nc(-c3ccc(C(F)(F)F)nc3)cc3c(=O)n(C[C@@H](O)C(F)(F)F)cnc23)cn1` [Compound 110, (R)-8-(1-methyl-1H-pyrazol-4-yl)-3-(3,3,3-trifluoro-2-hydroxypropyl)-6-(6-(trifluoromethyl)pyridin-3-yl)pyrido[3,4-d]pyrimidin-4(3H)-one], on AHR, the IC50 was < 100 nM. Moreover, the solubility at 2 h in data set [1] (setting [2]) and in data set [1] (setting [3]) was < 0.1 µM in each case.

In the case of `CC(C)(O)Cn1cnc2c(-c3cccnc3)nc(-c3ccc(C(F)(F)F)cc3)cc2c1=O` [Compound 16], on AHR, the IC50 was < 100 nM. In addition, the solubility at 2 h in data set [1] (setting [2]) and in data set [1] (setting [3]) was ≥ 1 µM throughout.

In the case of `C[C@@H](O)Cn1cnc2c(-c3cccnc3)nc(-c3ccc(C(F)(F)F)cn3)cc2c1=O` [Compound 144, (R)-3-(2-hydroxypropyl)-8-(pyridin-3-yl)-6-(5-(trifluoromethyl)pyridin-2-yl)pyrido[3,4-d]pyrimidin-4(3H)-one], the IC50 on AHR is < 100 nM. Also, the solubility at 2 h in data set [1] (setting [2]) and in data set [1] (setting [3]) was ≥ 1 µM in each case.

Regarding `CC(C)(O)Cn1cnc2c(-c3cnsc3)nc(-c3ccc(C(F)(F)F)nc3)cc2c1=O` [Compound 54], on AHR, the IC50 is < 100 nM. Also, the solubility at 2 h in data set [1] (setting [2]) and in data set [1] (setting [3]) was ≥ 1 µM each time.

`C[C@@H](n1cnc2c(-c3cnn(C)c3)nc(-c3ccc(Cl)cc3)cc2c1=O)C(C)(C)O` [Compound 31]: on AHR, the IC50 is < 100 nM. Moreover, the solubility at 2 h in data set [1] (setting [3]) was 0.1 to 1 µM (≈ 0.0424 to 0.424 µg/mL).

On to `O=c1c2cc(-c3ccc(C(F)(F)F)nc3)nc(-c3cccnc3)c2ncn1[C@H]1COC[C@H]1O` [Compound 126, 3-((3S,4S)-4-hydroxytetrahydrofuran-3-yl)-8-(pyridin-3-yl)-6-(6-(trifluoromethyl)pyridin-3-yl)pyrido[3,4-d]pyrimidin-4(3H)-one], for which, at AHR, the IC50 was < 100 nM. The solubility at 2 h in data set [1] (setting [2]) and in data set [1] (setting [3]) was ≥ 1 µM in each case.

In the case of `C[C@@H](CO)n1cnc2c(-c3cnsc3)nc(-c3ccc(Cl)cc3)cc2c1=O` [Compound 58], the IC50 on AHR is < 100 nM. Moreover, the solubility at 2 h in data set [1] (setting [2]) and in data set [1] (setting [3]) was < 0.1 µM each time.

As to `C[C@H](O)Cn1cnc2c(-c3cccnc3)nc(-c3ccc(C(F)(F)F)cn3)cc2c1=O` [Compound 143, (S)-3-(2-hydroxypropyl)-8-(pyridin-3-yl)-6-(5-(trifluoromethyl)pyridin-2-yl)pyrido[3,4-d]pyrimidin-4(3H)-one], the IC50 on AHR was < 100 nM. Moreover, the solubility at 2 h in data set [1] (setting [2]) and in data set [1] (setting [3]) was ≥ 1 µM in each case.

With `C[C@@H](CO)n1cnc2c(-c3cnn(C)c3)nc(-c3cnc(C(F)(F)F)nc3)cc2c1=O` [Compound 95], the IC50 at AHR is < 100 nM. In addition, the solubility at 2 h in data set [1] (setting [2]) and in data set [1] (setting [3]) was ≥ 1 µM in each case.
